Values joined by “and” are separate entries in the source; they are usually repeats but may differ in a detail not shown here. Identical values can stand only once. A value given as a limit tells only on which side of the number the result lay.

Test [1] concerns the target Integrin alpha-IIb/beta-3 (Homo sapiens, UniProt P05106+P08514). The experiment in a line: Inhibitory activity was determined against human alpha IIb beta3 integrin. The test is classed as protein-complex assay.
The target in test [2] is Integrin alpha-V/beta-3 and alpha-IIb/beta 3 (Homo sapiens) (UniProt P05106+P06756+P08514). The test is described as follows: Ratio of inhibitory activity against human alpha V beta-3 integrin to that of alpha IIb beta-3 integrin. The test is classed as protein assay.
For the next test, the species on record is Homo sapiens. The test is described as follows: Inhibition of human vascular smooth muscle proliferation was determined. The test is classed as functional. As to conditions: Muscle tissue.
The next test deals with Integrin alpha-V/beta-3 (Homo sapiens, UniProt P05106+P06756). The experiment in a line: Inhibitory activity was determined against human vitronectin receptor (alpha V beta 3). The test is classed as protein-complex assay.
Test [3] deals with Rattus norvegicus. The experiment in a line: Ratio of Intima area to media area was tested by subcutaneous infusion of compound at a constant rate of 1.3 umol/rat/day. The test is classed as functional.
In test [4] the test system is Rattus norvegicus. The test is described as follows: Antistenoic effect infused subcutaneously at a constant rate of 1.3 umol/rat/day. The test is classed as functional.
Test [5] has as its system Rattus norvegicus. The experiment in a line: Antistenoic effect infused subcutaneously at a constant rate of 0.43 umol/rat/day. The test is classed as functional.
Test [6] relates to Rattus norvegicus. The test is described as follows: Antistenoic effect infused subcutaneously at a constant rate of 0.14 umol/rat/day. The test is classed as functional.

Sequence of Integrin alpha-IIb/beta-3 (P05106 27-788 limits assumed): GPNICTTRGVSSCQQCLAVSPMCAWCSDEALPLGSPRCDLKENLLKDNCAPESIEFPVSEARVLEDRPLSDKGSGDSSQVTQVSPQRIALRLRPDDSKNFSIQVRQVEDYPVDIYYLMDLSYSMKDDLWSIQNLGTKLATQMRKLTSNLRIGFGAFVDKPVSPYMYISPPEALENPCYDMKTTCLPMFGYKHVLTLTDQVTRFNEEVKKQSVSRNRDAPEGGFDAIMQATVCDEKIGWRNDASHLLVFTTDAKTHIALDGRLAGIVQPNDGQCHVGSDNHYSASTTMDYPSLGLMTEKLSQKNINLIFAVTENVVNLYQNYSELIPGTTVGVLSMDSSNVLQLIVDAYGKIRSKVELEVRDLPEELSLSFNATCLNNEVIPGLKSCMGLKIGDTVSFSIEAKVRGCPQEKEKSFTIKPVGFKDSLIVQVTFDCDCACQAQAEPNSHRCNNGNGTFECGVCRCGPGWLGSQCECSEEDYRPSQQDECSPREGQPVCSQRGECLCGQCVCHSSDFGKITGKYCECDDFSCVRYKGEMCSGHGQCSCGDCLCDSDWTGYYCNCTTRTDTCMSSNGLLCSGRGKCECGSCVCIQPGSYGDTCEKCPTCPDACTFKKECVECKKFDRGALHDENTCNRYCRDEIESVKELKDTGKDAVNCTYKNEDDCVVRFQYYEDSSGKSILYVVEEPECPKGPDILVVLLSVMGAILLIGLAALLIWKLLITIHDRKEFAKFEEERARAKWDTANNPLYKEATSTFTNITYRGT
Sequence of Integrin alpha-IIb/beta-3 (P08514 32-887 limits assumed): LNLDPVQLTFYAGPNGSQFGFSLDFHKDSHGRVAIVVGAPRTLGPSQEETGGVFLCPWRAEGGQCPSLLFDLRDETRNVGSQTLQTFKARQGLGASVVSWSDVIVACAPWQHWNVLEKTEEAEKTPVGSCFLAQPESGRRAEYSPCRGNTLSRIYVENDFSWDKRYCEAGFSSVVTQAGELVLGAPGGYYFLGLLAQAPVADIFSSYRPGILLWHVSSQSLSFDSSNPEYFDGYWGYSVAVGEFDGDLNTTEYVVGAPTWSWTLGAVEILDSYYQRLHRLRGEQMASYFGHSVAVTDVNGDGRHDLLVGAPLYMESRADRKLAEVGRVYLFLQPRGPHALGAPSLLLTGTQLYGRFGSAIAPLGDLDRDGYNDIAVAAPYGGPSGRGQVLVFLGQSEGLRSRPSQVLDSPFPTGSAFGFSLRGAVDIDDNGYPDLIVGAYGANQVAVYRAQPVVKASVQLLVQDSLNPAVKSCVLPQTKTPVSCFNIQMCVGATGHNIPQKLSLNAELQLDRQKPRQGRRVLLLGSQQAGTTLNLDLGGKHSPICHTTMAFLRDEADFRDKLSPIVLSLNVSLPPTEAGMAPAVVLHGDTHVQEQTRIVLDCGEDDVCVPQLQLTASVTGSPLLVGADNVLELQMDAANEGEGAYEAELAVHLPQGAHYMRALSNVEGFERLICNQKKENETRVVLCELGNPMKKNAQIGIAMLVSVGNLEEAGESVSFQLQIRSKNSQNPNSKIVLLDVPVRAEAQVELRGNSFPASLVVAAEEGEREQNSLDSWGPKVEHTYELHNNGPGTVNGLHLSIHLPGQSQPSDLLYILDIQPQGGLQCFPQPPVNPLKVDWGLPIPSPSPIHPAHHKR
Sequence of Integrin alpha-IIb/beta-3 (P08514 891-1039 limits assumed): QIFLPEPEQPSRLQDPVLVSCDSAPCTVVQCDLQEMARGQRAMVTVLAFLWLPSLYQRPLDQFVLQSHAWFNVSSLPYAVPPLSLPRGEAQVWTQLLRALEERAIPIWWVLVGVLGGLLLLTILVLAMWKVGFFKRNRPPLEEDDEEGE
Sequence of Integrin alpha-V/beta-3 (P05106 27-788 limits assumed): as the sequence (P05106 27-788 limits assumed) above
Sequence of Integrin alpha-V/beta-3 (P06756 31-889 limits assumed): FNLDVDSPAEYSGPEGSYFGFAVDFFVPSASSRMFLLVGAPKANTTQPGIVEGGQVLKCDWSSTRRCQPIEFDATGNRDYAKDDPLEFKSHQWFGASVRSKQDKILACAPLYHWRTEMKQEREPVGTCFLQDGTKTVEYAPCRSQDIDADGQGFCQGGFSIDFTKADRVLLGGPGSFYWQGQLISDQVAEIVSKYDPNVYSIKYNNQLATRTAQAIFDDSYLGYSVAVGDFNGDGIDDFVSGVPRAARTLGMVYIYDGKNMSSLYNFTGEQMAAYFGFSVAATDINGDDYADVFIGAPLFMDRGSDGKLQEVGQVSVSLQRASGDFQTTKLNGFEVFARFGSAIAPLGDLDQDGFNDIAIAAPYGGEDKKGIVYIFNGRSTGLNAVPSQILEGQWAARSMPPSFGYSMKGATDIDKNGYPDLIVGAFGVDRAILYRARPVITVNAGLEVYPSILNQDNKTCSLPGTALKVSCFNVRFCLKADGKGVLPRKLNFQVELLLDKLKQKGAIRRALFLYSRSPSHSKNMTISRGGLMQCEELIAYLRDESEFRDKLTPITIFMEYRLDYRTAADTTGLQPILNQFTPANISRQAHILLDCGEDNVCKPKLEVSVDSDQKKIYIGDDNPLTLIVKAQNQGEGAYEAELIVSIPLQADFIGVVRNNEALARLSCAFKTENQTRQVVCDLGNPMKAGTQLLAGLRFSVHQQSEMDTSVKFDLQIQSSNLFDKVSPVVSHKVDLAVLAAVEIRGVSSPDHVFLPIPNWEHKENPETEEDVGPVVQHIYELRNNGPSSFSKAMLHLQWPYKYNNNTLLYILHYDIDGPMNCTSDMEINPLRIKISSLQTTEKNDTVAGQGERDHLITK
Sequence of Integrin alpha-V/beta-3 (P06756 891-1048 limits assumed): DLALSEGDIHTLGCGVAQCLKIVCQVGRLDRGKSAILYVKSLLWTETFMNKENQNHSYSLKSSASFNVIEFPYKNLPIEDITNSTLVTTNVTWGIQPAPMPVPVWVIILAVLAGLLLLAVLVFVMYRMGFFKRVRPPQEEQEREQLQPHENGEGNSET

The IC50 is the concentration at which inhibition is half-maximal. High values mean weaker potency, low ones greater potency. On to `O=C(NCc1ccccc1)N[C@@H](CCC(=O)N1CCN(c2cccc(NC3=NCCCN3)c2)CC1)C(=O)O`, for which the IC50 is above 1000 nM in test [1] and above 10000 nM in the test listed under Homo sapiens. Also, the Ratio in test [2] is above 710.

Turning to `O=C(N[C@@H](CCC(=O)N1CCN(c2cccc(NC3=NCCCN3)c2)CC1)C(=O)O)OCc1ccccc1`, the values for the IC50 (in test [1]; against Integrin alpha-V/beta-3; in the test filed under Homo sapiens) were 660 nM, 0.058 nM and 1100 nM, respectively. In test [2], the Ratio is 11000.

`CC(C)COC(=O)N[C@@H](CCC(=O)N1CCN(c2cccc(NC3=NCCCN3)c2)CC1)C(=O)O`: the IC50 is above 1000 nM in test [1] and 910 nM in the test filed under Homo sapiens. In test [2], the Ratio is above 3100.

Turning to `CCNC(=O)N[C@@H](CCC(=O)N1CCN(c2cccc(NC3=NCCCN3)c2)CC1)C(=O)O`, the IC50 in test [1] was above 1000 nM; in the test listed under Homo sapiens, above 10000 nM. The Ratio in test [2] was above 280.

On to `CC(C)COC(=O)N[C@@H](CCC(=O)N1CCN(c2cccc(NC3=NCC(O)CN3)c2)CC1)C(=O)O` (stereo partly specified), for which the IC50 in test [1] is above 1000 nM; in the test listed under Homo sapiens, 2000 nM. The Ratio in test [2] is above 33000.

As to `CC(C)COC(=O)N[C@@H](CCC(=O)N1CCN(c2cccc(NC3=NCC(C)(C)CN3)c2)CC1)C(=O)O`, the IC50 in test [1] was above 1000 nM; in the test listed under Homo sapiens it was 3400 nM. In addition, the Ratio in test [2] was above 2600.

Regarding `Cc1cc(C)c(S(=O)(=O)N[C@@H](CCC(=O)N2CCN(c3cccc(NC4=NCCCN4)c3)CC2)C(=O)O)c(C)c1`, in test [2], the Ratio was 140. The compound also had an IC50 in the test listed under Homo sapiens above 10000 nM.

As for `O=C(N[C@@H](CCC(=O)N1CCN(c2cccc(NC3=NCCCCN3)c2)CC1)C(=O)O)OCc1ccccc1`, the IC50 in test [1] was above 1000 nM; in the test listed under Homo sapiens it was 1700 nM. For the same compound, in test [2], the Ratio is above 18000.

For orientation: Inhibition means how much of the control response was suppressed. A low value points to a response near the control. On to `O=C(N[C@@H](CCC(=O)N1CCN(c2cccc(NC3=NCC(F)CN3)c2)CC1)C(=O)O)OCc1ccccc1` (stereo partly specified), for which, in the test on Rattus norvegicus [3], the intima/media ratio turned out to be 0.76. In test [2], the Ratio is 8600. In the test filed under Homo sapiens, the IC50 worked out at 260 nM. Besides, in the test with Rattus norvegicus [4], the Inhibition was 38% and 34%; the Intima area was 113 10e3 um2 and 149 10e3 um2.

Regarding `O=C(N[C@@H](CCC(=O)N1CCN(c2cccc(NC3=NCCN3)c2)CC1)C(=O)O)OCc1ccccc1`, in test [2], the Ratio came out at 4500. For the same compound, in the test filed under Homo sapiens, the IC50 was 3000 nM.

In the case of `CC(C)COC(=O)N[C@@H](CCC(=O)N1CCN(c2cccc(NC3=NCC(F)CN3)c2)CC1)C(=O)O` (stereo partly specified), the Inhibition is 38% with Rattus norvegicus [5]; 21% in the test on Rattus norvegicus [6]; 54% and 53% with Rattus norvegicus [4]. The IC50 in test [1] was above 1000 nM; in the test filed under Homo sapiens, 180 nM. The intima/media ratio in the test with Rattus norvegicus [3] worked out at 0.5. For the same compound, the Ratio in test [2] is above 18000. The Intima area in the test on Rattus norvegicus [4] was 81 10e3 um2 and 162 10e3 um2.

For `CCOC(=O)N[C@@H](CCC(=O)N1CCN(c2cccc(NC3=NCCCN3)c2)CC1)C(=O)O`, the IC50 in test [1] was above 1000 nM; in the test filed under Homo sapiens it was 2100 nM. Besides, the Ratio in test [2] is above 1700.

`O=C(Cc1ccccc1)N[C@@H](CCC(=O)N1CCN(c2cccc(NC3=NCCCN3)c2)CC1)C(=O)O`: the IC50 in test [1] was above 1000 nM; in the test listed under Homo sapiens, above 10000 nM. Further, in test [2], the Ratio is above 150.

With `O=C(N[C@@H](CCC(=O)N1CCN(c2cccc(NC3=NCC(O)CN3)c2)CC1)C(=O)O)OCc1ccccc1` (stereo partly specified), the Ratio in test [2] was determined as 2300. Also, in the test filed under Homo sapiens, the IC50 turned out to be 3500 nM.

As to `O=C(O)[C@H](CCC(=O)N1CCN(c2cccc(NC3=NCCCN3)c2)CC1)NS(=O)(=O)c1ccccc1`, the IC50 in test [1] was 88 nM; against Integrin alpha-V/beta-3 it was 1.4 nM; in the test listed under Homo sapiens it was above 10000 nM. Moreover, in test [2], the Ratio is 63.

The record behind these values is ChEMBL document CHEMBL1146737, “Discovery of a potent and selective alpha v beta 3 integrin antagonist with strong inhibitory activity against neointima formation in rat balloon injury model” (Bioorg Med Chem Lett, 2004).
